Measurements: patent US9255132B2, “Angiopoietin derived peptides” (Compugen Ltd., priority 2008, dated 2016)
Residues, ends and D or L forms follow the SMILES beside them.

System: avian chorioallantoic membrane (CAM)
Format: in vivo, Leghorn fertilized eggs
Conditions: for inhibition of vessel length: peptide 0.5 and 5 nmol/CAM, 48 h after treatment, vs vehicle control
Procedure: CGEN-G6 [SEQ ID NO: 6], CGEN-F9 [SEQ ID NO: 7], CGEN-F12 [SEQ ID NO: 8], CGEN-C6 [SEQ ID NO: 9], CGEN-A11 [SEQ ID NO: 10], and CGEN-G2 [SEQ ID NO: 11], were analyzed for their ability to affect angiogenesis using the in ovo avian chorioallantoic membrane (CAM) model of angiogenesis, which is widely used as a model to examine compounds affecting angiogenesis (Richardson and Singh 2003, Curr Drug Targets Cardiovasc Haematol Disord., 3(2):155-85). Two positive controls were used: fumagillin as a general anti-angiogenic compound, and Tie2 neutralizing antibody as anti-angiogenic inhibitor of the Ang/Tie2 pathway. Leghorn fertilized eggs were incubated for 4 days at 37° C., when a window was opened on the egg's shell, exposing the CAM. Two different doses of peptides (0.5 and 5 nmol/CAM), Tie-2 neutralizing antibody (R&D Systems, Cat#AF313, 10 μg/ml; 0.4 μg/CAM) or fumagillin (Tocris Bioscience, Cat #1768; 5 μg/CAM) were applied in a 40 μl volume inside an area of 1 cm^2 (restricted by a plastic ring) of the CAM on day 9 of embryo development. The appropriate vehicle controls were also tested. Forty-eight hours after treatment and subsequent incubation at 37° C., CAMs were fixed in situ, excised from the eggs, placed on slides and left to air-dry. Pictures were taken through a stereoscope equipped with a digital camera and the total length of the vessels was measured using image analysis software (NIH Image). For each group a total of 17-24 eggs from three different experiments were used. Data are presented as means±SEM and expressed as % of vehicle control. Statistical analysis (ANOVA followed by Dunnett's post-hoc test) was performed using Graph Pad.
FIG. 6 depict results obtained on vessel length with peptides CGEN-G6 [SEQ ID NO: 6], CGEN-F9 [SEQ ID NO: 7], CGEN-F12 [SEQ ID NO: 8], CGEN-C6 [SEQ ID NO: 9], CGEN-A11 [SEQ ID NO: 10], and CGEN-G2 [SEQ ID NO: 11], compared to Tie2 neutralizing antibody (Ab) and the anti-angiogenic compound fumagillin. Neutralizing Tie2 Ab blocked vessel length by 36%, while the angiogenesis inhibitor fumagillin blocked vessel length by 32%.

| Structure (SMILES) | inhibition of vessel length, rank among peptides (5 nmole) | inhibition of vessel length |
| --- | --- | --- |
| CC(=O)N[C@@H](CCC(=O)O)C(=O)N[C@H](C(=O)N[C@@H](Cc1ccccc1)C(=O)N[C@@H](CC(C)C)C(=O)N[C@@H](CO)C(=O)N[C@H](C(=O)N[C@@H](CC(N)=O)C(=O)N[C@@H](CCCCN)C(=O)N[C@@H](CC(C)C)C(=O)N[C@@H](CCC(=O)O)C(=O)N[C@@H](CC(N)=O)C(=O)N[C@@H](CCC(N)=O)C(N)=O)[C@@H](C)O)[C@@H](C)O [CGEN-A11, ETFLSTNKLENQ] (Ac-ETFLSTNKLENQ-NH2) | greatest effect |  |
| CC[C@H](C)[C@H](NC(=O)[C@H](C)NC(=O)[C@H](CCCNC(=N)N)NC(=O)[C@H](CCC(=O)O)NC(=O)[C@H](CC(C)C)NC(=O)[C@H](CCCCN)NC(=O)[C@H](CCCCN)NC(=O)[C@H](CC(C)C)NC(=O)[C@H](Cc1c[nH]c2ccccc12)NC(=O)[C@H](CCC(N)=O)NC(=O)[C@@H](NC(=O)[C@H](CC(N)=O)NC(=O)[C@H](CC(N)=O)NC(=O)[C@H](CCC(N)=O)NC(=O)[C@H](CC(C)C)NC(=O)[C@H](C)NC(=O)[C@H](CCC(N)=O)NC(=O)[C@H](CCC(=O)O)NC(=O)[C@H](CC(C)C)NC(=O)[C@H](CCC(N)=O)NC(=O)[C@H](CCCCN)NC(=O)[C@@H](NC(=O)[C@H](CCC(N)=O)NC(=O)[C@H](CCC(N)=O)NC(=O)[C@@H](NC(C)=O)[C@@H](C)O)C(C)C)[C@@H](C)O)C(=O)N[C@@H](CCCCN)C(=O)N[C@H](C(=O)N[C@H](C(=O)N[C@@H](CC(C)C)C(N)=O)[C@@H](C)CC)[C@@H](C)O [CGEN-G2] (Ac-TQQVKQLEQALQNNTQWLKKLERAIKTIL-NH2) |  | did not inhibit angiogenesis |
| CSCC[C@H](NC(=O)[C@H](CC(C)C)NC(=O)[C@H](CC(=O)O)NC(C)=O)C(=O)N[C@@H](CCC(=O)O)C(=O)N[C@H](C(=O)N[C@H](C(=O)N[C@@H](CC(N)=O)C(=O)N[C@@H](CC(N)=O)C(=O)N[C@@H](CC(C)C)C(=O)N[C@@H](CC(C)C)C(=O)N[C@H](C(=O)N[C@@H](CCSC)C(=O)N[C@@H](CCSC)C(=O)N[C@@H](CO)C(=O)N[C@H](C(=O)N[C@@H](CO)C(=O)N[C@@H](CC(N)=O)C(=O)N[C@@H](CO)C(=O)N[C@@H](C)C(=O)N[C@@H](CCCCN)C(=O)N[C@@H](CC(=O)O)C(N)=O)[C@@H](C)O)[C@@H](C)O)C(C)C)[C@@H](C)O [CGEN-G6] (Ac-DLMETVNNLLTMMSTSNSAKD-NH2) |  | did not inhibit angiogenesis |
